Experiments:
[1] = molecular target: T1, rat A1 Adenosine receptor (Rattus norvegicus, UniProt P25099); assay: Rat A1 adenosine receptor binding, [3H]-DPCPX, rat brain membranes; conditions: read-out: rA1 (Ki)
T1 construct: from tissue; host or cells: whole brain (minus brainstem, striatum and cerebellum) of male Wistar rats
T1 sequence (P25099 1-326): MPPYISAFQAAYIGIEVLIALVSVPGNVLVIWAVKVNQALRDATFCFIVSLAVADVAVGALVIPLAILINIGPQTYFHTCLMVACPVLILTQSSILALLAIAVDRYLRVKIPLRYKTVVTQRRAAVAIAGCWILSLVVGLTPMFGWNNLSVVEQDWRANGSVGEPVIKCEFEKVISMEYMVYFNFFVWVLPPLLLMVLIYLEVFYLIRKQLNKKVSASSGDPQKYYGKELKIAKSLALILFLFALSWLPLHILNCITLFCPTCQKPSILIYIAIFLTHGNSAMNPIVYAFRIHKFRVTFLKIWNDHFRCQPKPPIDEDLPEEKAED
Experimental: Membrane preparations: Male Wistar rats (200-250 g) can be decapitated and the whole brain (minug brainstem, striatum and cerebellum) dissected on ice. The brain tissues can be disrupted in a Polytron (setting 5) in 20 vols of 50 mM Tris HCl, pH 7.4. […] After 30 min incubation at 37° C., the membranes can be centrifuged and the pellets stored at −70° C. Striatal tissues can be homogenized with a Polytron in 25 vol of 50 mM Tris HCl buffer containing 10 mM MgCl2 pH 7.4. […] After 30 min incubation at 37° C., membranes can be centrifuged and the pellet stored at −70° C. […] Incubation times are typically 120 min at 25° C.
Radioligand binding assays may comprise the following: Binding of [^3H]-SCH 58261 (5-amino-7-(2-phenylethyl)-2-(2-furyl)-pyrazolo[4,3-e]-1,2,4-triazolo[1,5-c]pyrimidine) to rat striatal membranes (100 ug of protein/assay) can be performed according to methods described in Zocchi et al., 1996, J. Pharm. and Exper. […] In competition studies, at least 6-8 different concentrations of examined compounds should be used. […] Incubation time is typically 60 min at 25° C. Bound and free radioactivity can be separated by filtering the assay mixture through Whatman GF/B glass-fiber filters using a Brandel cell harvester (Gaithersburg, Md., USA). […] The filter bound radioactivity can be measured, for example, by liquid scintillation spectrometry. […]

[2] = molecular target: T2, rat A2A Adenosine receptor (Rattus norvegicus, UniProt P30543); assay: Rat A2A adenosine receptor binding, [3H]-SCH 58261, rat striatal membranes; conditions: read-out: rA2A (Ki)
T2 construct: from tissue; host or cells: rat striatum (male Wistar rats)
T2 sequence (P30543 whole entry): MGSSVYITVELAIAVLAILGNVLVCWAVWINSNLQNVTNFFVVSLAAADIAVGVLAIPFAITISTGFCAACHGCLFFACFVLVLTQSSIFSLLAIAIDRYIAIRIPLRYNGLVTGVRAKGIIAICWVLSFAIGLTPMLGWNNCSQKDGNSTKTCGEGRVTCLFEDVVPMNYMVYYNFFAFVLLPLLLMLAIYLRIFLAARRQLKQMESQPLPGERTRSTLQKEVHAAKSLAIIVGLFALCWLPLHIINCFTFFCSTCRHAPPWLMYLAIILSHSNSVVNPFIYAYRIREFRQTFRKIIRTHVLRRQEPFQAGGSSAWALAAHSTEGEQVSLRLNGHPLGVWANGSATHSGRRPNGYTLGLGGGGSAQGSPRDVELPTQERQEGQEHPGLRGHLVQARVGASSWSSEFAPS

[3] = test system: Human Colon Carcinoma HT29; assay: MTT growth inhibitory assay, HT29; type: cell-based; conditions: HT29 cells
Experimental: (§1) Interpretation of the EF is dependent upon the concentrations of A3 receptor antagonist tested. For example, when using very low concentrations of A3 receptor antagonist, any EF above 1.0 is synergistic if the A3 receptor antagonist concentration is below the threshold of cell growth inhibition.
(§2) The cells are sub-cultured twice a week.
(§3) Vinblastine sulfate salt was obtained from Sigma Chemical Co., (V1377). Irinotecan was diluted with culture medium. All other agents were dissolved in 100% DMSO at appropriate concentrations. The DMSO stock solutions were diluted 100-fold with growth medium so that the final DMSO concentration was 1%.

[4] = test system: Human Pancreatic Cancer Panc-1; assay: MTT growth inhibitory assay, Panc-1; type: cell-based; conditions: Panc-1 cells, A3 antagonist at 0.5 μg/ml
Experimental: as §1, §2, §3

[5] = test system: Human Lung Carcinoma SKMES; assay: MTT growth inhibitory assay, SKMES; type: cell-based; conditions: SKMES cells, A3 antagonist at 0.5 μg/ml
Experimental: as §1, §2, §3

Human Melanoma A375 = assay: MTT growth inhibitory assay, A375; conditions: A375 cells
Experimental: An exemplary assay may comprise the following steps: Cells (1000-1500 cells/well) are seeded in a 96-well micro culture plate in a total volume of 100 μl/well. After overnight incubation in a humidified incubator at 37° C. with 5% CO2-95% air, chemotherapeutic drug solutions diluted with culture medium at various concentrations are added in the amount of 100 μl to each well. The plates are placed in a humidified incubator at 37° C. with 5% CO2-95% air for 7-10 days. The plates are then centrifuged briefly and 100 μl of the growth medium is removed. Cell cultures are incubated with 50 μl of MTT [3-(4,5-dimethylthiazol-2-yl)-2,5-diphenyl-tetrazolium bromide] reagent (1 mg/ml in Dulbecco's phosphate-buffered saline) for 4 hr at 37° C. The resultant purple formazan precipitate is solubilized with 200 μl of 0.04 N HCl in isopropanol. Absorbance is measured at a wavelength of 595 nm and at a reference wavelength of 655 nm using a Bio-Rad Model 3550 Microplate Reader. Preferably, all tests are run in duplicate for each dose level. […] The EZED50 computer program estimates the concentration of agent that inhibits cell growth by 50% as compared to the control cells. This is termed the IC50 and is determined by curve fitting test data using the following four logistic equation. [formula]
If testing concentrations are properly selected (i.e., no or little growth inhibition at low concentrations and complete inhibition at high concentrations), EZED50 program fits the data extremely well and estimates the IC50 value accurately. […] In these instances, the data could be re-analyzed by fixing the Amax value.
In this case, the IC50 could be estimated more accurately if both the Amax and Amin values are fixed. Although it may be feasible to estimate IC50 value by fixing Amax and/or Amax and Amin without repeating the experiment, the best way to determine the IC50 accurately is to decrease or increase the concentrations of the test agent and repeat the test.
Inhibitory assay testing is also used to determine enhanced therapeutic effects from combining A3 receptor antagonists with other tumor inhibiting agents. The inhibitory cell growth assays are run with and without selected concentrations of A3 receptor antagonists. An enhanced therapeutic effect is present when the IC50 of the tumor inhibiting agent is lower with the A3 receptor antagonist.
Quantitatively, the enhancement factor (EF) is calculated by dividing the IC50 value of the tumor inhibiting agent for a tumor cell line by the IC50 value of the agent with A3 receptor antagonist for the same cell line: [formula]
The cells are cultured in a T25 Falcon Tissue Culture flask in a humidified incubator at 37° C. with 5% CO2-95% air. The cells are sub-cultured twice a week.

[6] = enhancement of paclitaxel IC50, A3 antagonist at 0.5 μg/ml

Structure (SMILES): CN(C)c1ccc(NC(=O)Nc2nc3nn(C)cc3c3nc(-c4ccco4)nn23)cc1 [IL-11, N-1-(4-dimethylamino-phenyl)-N′-5-[8-methyl-2-(2-furyl)-pyrazolo[4,3-e]1,2,4-triazolo[1,5-c]pyrimidine]-urea]
- Ki [1]: > 10 µM
- Ki [2]: > 10 µM
- Enhancement Factor ([3]; enhancement of docetaxel IC50, A3 antagonist at 0.05 μg/ml): 6.4
- Enhancement Factor ([3]; enhancement of doxorubicin IC50, A3 antagonist at 0.5 μg/ml): 1.2
- Enhancement Factor ([3]; enhancement of irinotecan IC50, A3 antagonist at 0.5 μg/ml): 1.1
- Enhancement Factor [3, 6]: 2.5
- Enhancement Factor ([4]; enhancement of docetaxel IC50): 1.4
- Enhancement Factor ([4]; enhancement of paclitaxel IC50): 1.8
- Enhancement Factor ([5]; enhancement of docetaxel IC50): 1.9
- Enhancement Factor ([5]; enhancement of irinotecan HCL IC50): 1.9
- Enhancement Factor ([5]; enhancement of paclitaxel IC50): 4.2
- Enhancement Factor ([5]; enhancement of vinblastine IC50): 1.6
- Enhancement Factor (Human Melanoma A375; enhancement of docetaxel IC50, A3 antagonist at 0.5 μg/ml): 5.3
- Enhancement Factor (Human Melanoma A375; enhancement of docetaxel IC50, A3 antagonist at 5 μg/ml): 6.5
- Enhancement Factor (Human Melanoma A375; [6]): 3.1
- Enhancement Factor (Human Melanoma A375; enhancement of paclitaxel IC50, A3 antagonist at 5 μg/ml): 9.6
